One assay concerns murine TLR7. As to the kind of experiment: TLR7-mediated cytokine expression in murine macrophages (R848). Type of assay: cell-based, mouse. The conditions noted are these: R848 (data not shown). From the text: Thus, P7-Pen interferes with signaling initiated by human TLR7 and TLR8, but has no effect on signaling via murine TLR7 (murine TLR8 is believed to be non-functional).

Another assay deals with THP-1 TRAM KO cells. Put plainly: qPCR of LPS-mediated cytokine expression in THP-1 TRAM KO cells. It is filed as cell-based, human. The conditions noted are these: 10 μM, LPS 100 ng/ml 2 or 4 h. The protocol:
Control THP-1 CRISPR cells and TRAM KO cells were pre-treated with 10 μM peptides—control peptides with amino acid substitutions (C3-Pen) or TRAM-targeting peptide Pep7-Penetratin (P7-Pen)—for 30 min before stimulation with LPS (100 ng/ml) for 2 or 4 h. Cells were lysed with Qiazol, followed by RNA isolation and quantitative PCR analysis of cytokine mRNA expression.
In human cells (THP-1 cell line) TRAM expression was not required for TLR4-mediated IL-1β or TNF expression in response to LPS or E. coli particles (FIG. 21, lower panels). P7-Pen was as effective in reducing expression of pro-inflammatory cytokines in THP-1 TRAM KO cells as in control cells (FIG. 22).
(In general: Quantitative PCR measures a nucleic acid by following its amplification.)

In the next assay the test system is TLR2. As to the kind of experiment: Primary human macrophages stimulated with FSL-1: cytokine mRNA, Western blot, IRAK precipitations. Type of assay: cell-based. The conditions noted are these: primary human macrophages (data not shown). The protocol:
(§1) Primary human macrophages (PBMC derived, differentiated in media with 10% human serum and M-CSF 20 ng/ml, 7 days) were stimulated with K12 LPS (100 ng/ml), FSL-1 (100 ng/ml) or CL075 (3 μg/ml). […] (B) qPCR for mRNA expression of IFNβ, IL-6, TNF and IL-1β, average for three biological replicates, error bars ±SD.
Primary human macrophages (7 days) were pre-treated with Pen or P7-Pen (15 μM) for 30 min before addition of LPS (100 ng/ml), FSL-1 (100 ng/ml) or CL075 (3 μg/ml). A: Protein expression in lysates for input control. B,C: Precipitations were performed using sheep anti-IRAK4 (B) or anti-IRAK1 (C) polyclonal antibodies covalently bound to magnetic beads.
(§2) The effect of P7-Pen on TLR2-mediated pro-inflammatory cytokine expression was investigated.
A general note: In western blotting, separated proteins are transferred to a membrane and probed.

The subject of a further assay is TLR9. It is filed as cell-based, human. Conditions: 15 μM, 1 h pre-treatment, CpG 2006. The protocol:
CpG 2006 (10 μM) was used as specific TLR9 ligand. (A) Results of LDH assay on SNs from stimulated cells. (B-E) Results of qPCR analysis of cytokine expression with TaqMan probes. (F) Results of ELISA for secreted IL-113 levels. Cells were pre-treated with 15 μM peptides for 1 h, followed by addition of CpG 2006 to the cell culture media.
We then tested whether P7-Pen could alter signaling via another endosomal PRR: TLR9, which recognises specific unmethylated CpG motifs prevalent in microbial DNA. In humans, TLR9 is almost exclusively expressed in B cells and plasmacytoid dendritic cells (pDC), while in mice TLR9 is expressed more widely, including in myeloid immune cells. To test the effect of P7-Pen on signaling via human TLR9 we used a model system of THP-1 cells expressing an inducible TLR9^CHERRY construct. 48 hr after induction of TLR9 expression by doxycycline, undifferentiated THP-1 TLR9^CHERRY cells were pre-treated with control or P7-Pen peptide for 1 hr, then stimulated with the Class B CpG oligonucleotide CpG 2006 ODN (a human-specific TLR9 agonist). […] Thus, P7 peptide could also be used to inhibit the expression of selected cytokines mediated by TLR9 in human disease.

The test system of the next assay is S. aureus particles. Put plainly: Whole blood assay, S. aureus particle stimulation. It is filed as cell-based, human. Conditions: 20 μM, 4 h. The protocol: Whole blood samples from healthy donors were pre-treated with 20 μM peptides for 1 h then stimulated with TLR ligands for 4 h before plasma collection. Results are for at least 6 donors. The Wilcoxon matched-pairs signed rank test was used for statistical analysis between 2 groups in Prizm 8.2.1. In each graph, circles indicate whole blood pre-treated with water, squares indicate blood pre-treated with control peptide (average for treatment with Pen and C3-Pen), and triangles indicate pre-treatment with P7-Pen.
To evaluate the effect of peptides in an ex vivo system, a human whole blood model was used. Peripheral venous blood was drawn from 6 healthy donors into sterile polypropylene tubes (Thermo Scientific™ Nunc™ Biobanking and Cell Culture Cryogenic Tubes) containing the anti-coagulant Lepirudin (Refludan®; Celgene). Peptide solutions were made by diluting peptide stocks in DPBS (Dulbecco's Phosphate Buffered Saline with MgCl2 and CaCl2; Sigma-Aldrich) to obtain a final concentration of 140 μM. Peptide solution or DPBS was distributed in equal volume (50 μL) to 1.8 mL sterile polypropylene tubes (Thermo Scientific™Nunc™ Biobanking and Cell Culture Cryogenic Tubes). 250 μL whole blood was then added to the 1.8 mL tubes containing peptide solution or DPBS, and incubated at 37° C. under constant rotation for 1 h (concentration of peptides for pre-incubation: 23.3 μM). […]

In the next assay the test system is Jurkat cells. As to the kind of experiment: Proliferation of Jurkat T cell leukaemia cells. Type of assay: cell-based, human. The conditions noted are these: 15 μM or 20 μM, 48 h. The protocol:
Jurkat cells were seeded at 5000 cells/well (as indicated by dotted line) and incubated in medium supplemented with water, penetratin, P7-Pen or P7-N4-Pen. Peptides were included at 15 μM (A) or 20 μM (B). Cells were incubated for 48 hours then counted. […] Results are based on 3 biological replicates, error bars show standard deviation of mean.
SW480 (ATCC CCL-228) and Jurkat (ATCC Clone E6-1; TIB-152) cells were cultured in RPMI 1640 (Sigma-Aldrich, Schnelldorf, Germany) supplemented with 10% heat-inactivated FCS, penicillin/streptomycin (Life Technologies) and 20 mM L-Glutamine. THP-1 cells (ATCC TIB-202) were cultured in RPMI-1640 (high-glucose, ATCC) supplemented with 10% heat inactivated foetal calf serum (FCS), 100 nM penicillin/streptomycin and 5 μM β-mercaptoethanol (Sigma). THP-1 cells were differentiated with 60 ng/ml phorbol 12-myristate 13-acetate (PMA, Sigma) for 72 h, followed by 24 or 48 h in medium without PMA.
The peptides were tested against the SW480 cell line in the presence and absence of LPS.

A further assay relates to TLR4. As to the kind of experiment: Primary human macrophages stimulated with LPS: cytokine mRNA and p38 MAPK phosphorylation. Conditions: primary human macrophages (data not shown). It is filed as cell-based. The protocol:
as §1, §2

“Also recorded” adds a separate entry of the source.

Experimental findings from patent US20230220047A1, “PEPTIDES FOR TREATMENT OF SEPSIS AND CANCER” (NORWEGIAN UNIVERSITY OF SCIENCE AND TECHNOLOGY (NTNU), priority 2020, published 2023) are described below.

Take “Ac-ITVYASVTLTGRQIKIWFQNRRMKWKK-NH2 [Peptide P7-Pen]”: in the assay on murine TLR7, the TLR7-mediated cytokine expression result is recorded as “no effect”. Moreover, the “reducing expression of pro-inflammatory cytokines in THP-1 TRAM KO cells versus control cells” value in the assay with THP-1 TRAM KO cells is on record as “as effective”. The “expression of pro-inflammatory cytokines induced by TLR2/6 agonist FSL-1” value with TLR2 is “no effect”. Also, in the assay on TLR9, the “TLR9-mediated IFNβ and CXCL10 expression” value is reported as “strongly inhibited”; the “TLR9-mediated expression of TNF and IL-1β” value was “to some extent inhibited”. In the assay with S. aureus particles, the “S. aureus-mediated IFNβ secretion” value is “significantly downregulated”; the “S. aureus-mediated TNF, IL-6 and IL-1β pro-inflammatory cytokine secretion” value was “significantly decreased”. In the assay on Jurkat cells, the “effect on proliferation of Jurkat cells” value was “possible anti-proliferative effect; also recorded: clear anti-proliferative effect”. Also, in the assay on TLR4, the “TLR4-mediated expression of TNF, IL-6 and IL-1β mRNA” value is on record as “totally abrogated”.
